Tests used:
cells = conditions: Homo sapiens, MIA PaCa-2, 48 h
Description: Cytotoxicity against human MIAPaCa2 cells assessed as inhibition of cell proliferation after 48 hrs by MTT assay

PC-3 [1] = test: cells; conditions: Homo sapiens, PC-3, 48 h
Description: Cytotoxicity against human PC3 cells assessed as inhibition of cell proliferation after 48 hrs by MTT assay

HepG2 [2] = test: Cytotoxicity against human HepG2 cells assessed as growth inhibition at 10 uM after 24 to 48 hrs by MTT assay relative to control; format: functional; conditions: read-out: GI
HCT-116 [3] = test: cells; conditions: Homo sapiens, HCT-116, 48 h
Description: Cytotoxicity against human HCT116 cells assessed as inhibition of cell proliferation after 48 hrs by MTT assay

HepG2 [4] = test: cells; conditions: Homo sapiens, HepG2, 48 h
Description: Cytotoxicity against human HepG2 cells assessed as inhibition of cell proliferation after 48 hrs by MTT assay

HL-60 [5] = test: cells; conditions: Homo sapiens, HL-60, 48 h
Description: Cytotoxicity against human HL60 cells assessed as inhibition of cell proliferation after 48 hrs by MTT assay

HCT-116 [6] = test: Cytotoxicity against human HCT116 cells assessed as growth inhibition at 100 uM after 24 to 48 hrs by MTT assay relative to control; format: functional; conditions: read-out: GI
HL-60 [7] = test: Cytotoxicity against human HL60 cells assessed as growth inhibition at 100 uM after 24 to 48 hrs by MTT assay relative to control; format: functional; conditions: read-out: GI
PC-3 [8] = test: Cytotoxicity against human PC3 cells assessed as growth inhibition at 30 uM after 24 to 48 hrs by MTT assay relative to control; format: functional; conditions: read-out: GI
HL-60 [9] = test: Cytotoxicity against human HL60 cells assessed as growth inhibition at 10 uM after 24 to 48 hrs by MTT assay relative to control; format: functional; conditions: read-out: GI
[10] = Cytotoxicity against human MIAPaCa2 cells assessed as growth inhibition at 30 uM after 24 to 48 hrs by MTT assay relative to control; format: functional; conditions: MIA PaCa-2, read-out: GI
HepG2 [11] = test: Cytotoxicity against human HepG2 cells assessed as growth inhibition at 30 uM after 24 to 48 hrs by MTT assay relative to control; format: functional; conditions: read-out: GI
[12] = Cytotoxicity against human MIAPaCa2 cells assessed as growth inhibition at 10 uM after 24 to 48 hrs by MTT assay relative to control; format: functional; conditions: MIA PaCa-2, read-out: GI
HL-60 [13] = test: Cytotoxicity against human HL60 cells assessed as growth inhibition at 30 uM after 24 to 48 hrs by MTT assay relative to control; format: functional; conditions: read-out: GI
PC-3 [14] = test: Cytotoxicity against human PC3 cells assessed as growth inhibition at 10 uM after 24 to 48 hrs by MTT assay relative to control; format: functional; conditions: read-out: GI
HCT-116 [15] = test: Cytotoxicity against human HCT116 cells assessed as growth inhibition at 30 uM after 24 to 48 hrs by MTT assay relative to control; format: functional; conditions: read-out: GI
HCT-116 [16] = test: Cytotoxicity against human HCT116 cells assessed as growth inhibition at 10 uM after 24 to 48 hrs by MTT assay relative to control; format: functional; conditions: read-out: GI
[17] = Cytotoxicity against human MIAPaCa2 cells assessed as growth inhibition at 100 uM after 24 to 48 hrs by MTT assay relative to control; format: functional; conditions: MIA PaCa-2, read-out: GI
PC-3 [18] = test: Cytotoxicity against human PC3 cells assessed as growth inhibition at 100 uM after 24 to 48 hrs by MTT assay relative to control; format: functional; conditions: read-out: GI
HepG2 [19] = test: Cytotoxicity against human HepG2 cells assessed as growth inhibition at 100 uM after 24 to 48 hrs by MTT assay relative to control; format: functional; conditions: read-out: GI
[20] = target: Serine/threonine-protein kinase mTOR (Homo sapiens) (UniProt P42345); test: Inhibition of mTOR (unknown origin) assessed as p70S6K phosphorylation after 30 mins by ELISA

SMILES | IC50 (cells) | IC50 (PC-3 [1]) | inhibition of growth at 10 µM (HepG2 [2]) | IC50 (HCT-116 [3]) | IC50 (HepG2 [4]) | IC50 (HL-60 [5]) | inhibition of growth at 100 µM (HCT-116 [6]) | inhibition of growth at 100 µM (HL-60 [7]) | inhibition of growth at 30 µM (PC-3 [8]) | inhibition of growth at 10 µM (HL-60 [9]) | inhibition of growth at 30 µM [10] | inhibition of growth at 30 µM (HepG2 [11]) | inhibition of growth at 10 µM [12] | inhibition of growth at 30 µM (HL-60 [13]) | inhibition of growth at 10 µM (PC-3 [14]) | inhibition of growth at 30 µM (HCT-116 [15]) | inhibition of growth at 10 µM (HCT-116 [16]) | inhibition of growth at 100 µM [17] | inhibition of growth at 100 µM (PC-3 [18]) | inhibition of growth at 100 µM (HepG2 [19]) | also measured
O=[N+]([O-])c1cc(S(=O)(=O)N(c2ccccc2)c2ccnc3ccc(-c4ccc(O)cc4)cc23)ccc1C(F)(F)F | 16 µM | 18 µM | 3% | > 100 µM | > 100 µM | < 10 µM | 29% | 93% | 68% | 90% | 60% | 3% | 45% | 92% | 39% | 23% | 20% | 79% | 84% | 8% | 
O=S(=O)(c1ccc(F)cc1)N(c1ccccc1)c1ccnc2ccc(-c3ccc(O)cc3)cc12 | 65 µM | 42 µM | 1% | 27 µM | 85 µM | 28 µM | 92% | 79% | 43% | 2% | 30% | 10% | 9% | 51% | 16% | 57% | 20% | 70% | 87% | 60% | 
Nc1ccc(S(=O)(=O)N(c2ccccc2)c2ccnc3ccc(-c4ccc(O)cc4)cc23)cc1 | 8 µM | 45 µM | 59% | 28 µM | 9 µM | 5 µM | 88% | 92% | 40% | 66% | 84% | 70% | 64% | 81% | 30% | 54% | 33% | 85% | 84% | 71% | 
COC[C@H]1OC(=O)c2coc3c2[C@@]1(C)C1=C(C3=O)[C@@H]2CCC(=O)[C@@]2(C)C[C@H]1OC(C)=O |  |  |  |  |  |  |  |  |  |  |  |  |  |  |  |  |  |  |  |  | inhibition [20]: 100%

From ChEMBL document CHEMBL3593172, “4-(N-Phenyl-N'-substituted benzenesulfonyl)-6-(4-hydroxyphenyl)quinolines as inhibitors of mammalian target of rapamycin” (Bioorg Med Chem, 2015)
